Laboratory results reported in US20180092947A1, “L-MYC Expression Maintains Self Renewal and Prolongs Multipotency of Primary Human Neural Stem Cells” (priority 2016, published 2018).

Tested on: U251 human glioma cells
Test: In vitro cytotoxicity assay, CPT-11 alone or with hCElm6 (CellTiter-Glo)
Type: cell-based
Settings: irinotecan 0-100 μM for 4 hours, then 96 hours drug-free, conditioned medium from CE-expressing LM-NSC008 cells
Excerpt: To explore the therapeutic potential of LM-NSC008 cells, we characterized their migration to tumor-conditioned media in vitro. […] We performed in vitro cytotoxicity assays using human U251 glioma cells and various concentrations of irinotecan alone or in combination with CE derived from LM-NSC008 cells adenovirally transduced to express hCElm6. We observed enhanced irinotecan toxicity (500-fold) in the presence of hCElm6 in the culture media, when compared with CPT-11 alone. CE (hCElm6) activity was measured at 995 nmol/min/ml in the conditioned media derived from LM-NSC008 cells prior to cytotoxicity experiment (FIG. 2D).
Human U251 glioma cell line was used in in vitro cytotoxicity assays as described previously (Metz et al., 2013). Briefly, cells were placed into 96-well plates (5,000 cells per well, in triplicate) in […] of culture media per well and cultured for 24 hours. Irinotecan (CPT-11), diluted in control culture medium or conditioned medium from CE-expressing LM-NSC008 cells, was then added to final concentrations of 0-100 μM. Cells were incubated with irinotecan for 4 hours, after which medium was aspirated and replaced with drug-free fresh medium, and cells were grown for an additional 96 hours. […]

CCc1c2c(nc3ccc(OC(=O)N4CCC(N5CCCCC5)CC4)cc13)-c1cc3c(c(=O)n1C2)COC(=O)[C@]3(O)CC [irinotecan]
enhanced irinotecan toxicity in the presence of hCElm6 compared with CPT-11 alone: 500 fold
